Tests used:
small DRG neurons = assay: Spiking activity of DRG neurons, current-clamp; assay type: cell-based, mouse
Protocol: Dorsal root ganglion (DRG) neurons were dissected from 2-4 days-old ICR mice that were decapitated. DRGs were placed in Hank's balanced saline solution (HBSS) and were prepared by enzymatic dissociation. Briefly, cells were incubated for 30 minutes in 5 mg/ml dispase (Sigma), 2 mg/ml collagenase type 1A (Sigma) and 0.1 mg/ml DNase (Invitrogen/Gibco) in calcium and magnesium-free HBSS, and the ganglia were thereafter mechanically triturated with a firepolished glass Pasteur pipette. The ganglia were then centrifuged for 5 minutes at 80×g and resuspended in DMEM supplemented with 2 mM L-glutamine, 16.5 mM NaCO3, 6 g/l glucose, 5 ml penicillin/streptomycin and 10% fetal calf serum. For electrophysiological recording, dissociated neurons were plated on 13 mm glass coverslips previously coated with poly-D-lysine (1 mg/ml) and laminin (10 μg/ml) and were used after 2-6 days in culture.
For current measurements in CHO cells, recordings were performed 40 hours following transfection, using the whole-cell configuration of the patch-clamp technique [Hamill et al., Nature 294: 462-464 (1981)]. Signals were amplified using an Axopatch 200B patch-clamp amplifier (Axon Instruments, Foster City, Calif., USA), sampled at 2 kHz and filtered at 800 Hz via a 4-pole Bessel low pass filter. Data were acquired using pClamp 8.1 software (Axon Instruments, Foster City, Calif., USA) and an Elonex Pentium III computer in conjunction with a DigiData 1322A interface (Axon Instruments, Foster City, Calif., USA). The patch pipettes were pulled from borosilicate glass (Warner Instrument. Corp., Hamden, Conn., USA) with a resistance of 2-5 MΩ and were filled with (in mM): 130 KCl, 1 MgCl2, 5 K2ATP, 5 EGTA, 10 HEPES, adjusted with KOH at pH 7.4 (290 mOsm). The external solution contained (in [mM]): 140 NaCl, 4 KCl, 1.8 CaCl2, 1.2 MgCl2, 11 glucose, 5.5 HEPES, adjusted with NaOH at pH 7.4 (310 mOsm). Series resistances (3-13 MΩ) were compensated (75-90%) and periodically monitored. […]

[1] = test system: hippocampal pyramidal neurons; assay: Spontaneous EPSCs of hippocampal pyramidal neuron cultures, voltage-clamp; assay type: cell-based
Protocol: To further determine the synaptic site of M-channel activation by Compound 6, its effects on spontaneous excitatory postsynaptic currents (EPSCs) that could be recorded from dense networks of hippocampal pyramidal neuron cultures was tested.
In FIGS. 30B and 30C, burst activity before (control), in the presence (Compound 6) and after (Wash) application of 5 μM (FIG. 30B) and 10 μM (FIG. 30C) Compound 6, as recorded at the voltage clamp mode is shown. In FIG. 30D, burst activity before (control) and in the presence of 25 μM Linopirdine is shown. In FIG. 30E, the normalized number of bursts appeared in 180 seconds time period for 5 μM (left panel), 10 μM (mid panel) of Compound 6 and 25 μM linopirdine (right panel) are shown. The holding potential was −70 mV. n=5-6.
Thus, using the voltage-clamp configuration of the patch-clamp technique, spontaneous EPSCs were isolated at −70 mV (holding potential) in the presence of 10 μM bicuculline and 10 μM picrotoxin to block GABAA receptor-mediated inhibitory postsynaptic currents. As is shown in FIG. 30A, under control conditions, the frequency of EPSCs is variable depending of the density of the hippocampal culture, ranging from 0.4 Hz to 2 Hz. […] However, the majority of the EPSCs measured at −70 mV under the experimental recording conditions are mediated by AMPA receptors as most of the currents are blocked by 10 μM NBQX, leaving only a small fraction EPSC sensitive to the NMDA receptor blocker DL-AP5 (FIG. 30A).

homomeric KCNQ2 channels = molecular target: T1, homomeric KCNQ2 channels (Homo sapiens, UniProt O43526); assay: Homomeric KCNQ2 channels expressed in CHO cells, patch-clamp; assay type: cell-based; details: 50 μM
T1 construct: expressed in transfected cells; host or cells: CHO cells

KCNQ1 = molecular target: T2, KCNQ1 (Homo sapiens, UniProt P51787); assay: KCNQ1 current amplitude in Xenopus oocytes; assay type: cell-based; details: 50 μM, test potentials −50 to 0 mV, data not shown
T2 construct: expressed in transfected cells; host or cells: Xenopus oocytes (cRNA microinjection)
Protocol: Briefly, two-electrode voltage-clamp measurements were performed 3-5 days following cRNA microinjection into oocytes. Oocytes were bathed in a modified ND96 solution containing (in mM): 96 NaCl, 2 KCl, 1 MgCl2, 0.1 CaCl2 and 5 HEPES titrated to pH=7.4 with NaOH. Whole-cell currents were recorded at room temperature (20° C.-22° C.) using a GeneClamp 500 amplifier (Axon Instruments, Foster City, Calif., USA). […] Current signals were filtered at 0.5 kHz and digitized at 2 kHz.
Data are expressed as mean±SEM of 5-8 separate experiments.
The current amplitude of the various channels was measured from a −80 mV holding potential.

Row | Compound | effect on trains of evoked spikes (small DRG neurons; 15 μM, 75 pA, 400 ms) | effect on solitary evoked spike (small DRG neurons; 300 pA, 1 ms pulse) | frequency of spontaneous EPSCs ([1]; 5 μM, −70 mV holding potential) | occurrence of spontaneous EPSCs ([1]; ≧10 μM) | leftward shift in the activation curve of KCNQ2 channels (homomeric KCNQ2 channels; CHO cells) | increase of KCNQ2 current amplitude (homomeric KCNQ2 channels; stepped from −85 mV to −40 mV) | time constant of deactivation τdeact of KCNQ2 with compound (homomeric KCNQ2 channels; control 92.6±3.9 msec) | V50 of KCNQ2 activation with compound (homomeric KCNQ2 channels; control −23.6±2.2 mV) | effect on homomeric KCNQ1 currents (KCNQ1)
1 | O=C(Cc1ccccc1Nc1c(Cl)cccc1Cl)NCCOCCO [Compound 6] | potently and reversibly blocked | reversibly prevent the generation of the single action potential | up to 49±5 % of control | totally suppresses | – | – | – | – | –
2 | Cc1ccc(Cl)c(Nc2ccccc2C(=O)O)c1Cl [Compound 1, Meclofenamic acid] | – | – | – | – | −26.9 mV | 240±26% | 152.7 ± 4.9 ms | −50.5±1.4 mV | not enhanced

Source: patent publication US8618169B2, “Derivatives of N-phenylanthranilic acid and 2-benzimidazolone as potassium channel and/or neuron activity modulators” (Ramot at Tel-Aviv University Ltd., priority 2002, dated 2013)
